Test results as given in patent US7982042B2, “Thiozanthene derivatives as delta-opioid modulators” (priority 2003, dated 2011).
Where two headings read alike, the source gives them in different places.

What was measured:
[1] = target: T1, Rat brain delta opioid receptor (Rattus norvegicus, UniProt P33533); assay: Rat brain delta opioid receptor binding; details: rDOR Ki
T1 construct: from tissue; host or cells: rat brain

[2] = target: T2, Rat brain mu opioid receptor (Rattus norvegicus, UniProt P33535); assay: Rat brain mu opioid receptor binding assay ([3H]DAMGO)
T2 construct: from tissue; host or cells: forebrain of male Sprague Dawley rats
Method: • Procedure: Male, Sprague Dawley (150-250 g, VAF, Charles River, Kingston, N.Y.) are killed by CO2, and their brains removed and placed immediately in ice cold Tris HCl buffer (50 mM, pH 7.4). The forebrains are separated from the remainder of the brain by a coronal transection, beginning dorsally at the colliculi and passing ventrally through the midbrain-pontine junction. After dissection, the forebrains are homogenized in Tris buffer in a Teflon®-glass homogenizer. The homogenate is diluted to a concentration of 1 g of forebrain tissue per 80 mL Tris and centrifuged at 39,000×g for 10 min. The pellet is resuspended in the same volume of Tris buffer containing 5 mM MgCl2 with several brief pulses from a Polytron homogenizer. This particulate preparation is used for the mu-opioid binding assays. […] Kd and Ki values are calculated using GraphPad PRISM data analysis program.

delta opioid receptor = target: T3, delta opioid receptor (Mus musculus, UniProt P32300); assay: [35S]GTPγS binding assay in NG108-15 cell membrane; format: biochemical
T3 construct: host or cells: NG108-15 cells (membranes, purchased)
Method: NG108-15 cell membranes were purchased from Applied Cell Sciences (Rockville, Md.). An 8 mg/mL portion of membrane protein was suspended in 10 mM TRIS-HC pH 7.2, 2 mM EDTA, 10% sucrose.
Membranes were maintained at 4-8° C. A 1 mL portion of membranes was added into 10 mL cold binding assay buffer. The assay buffer contained 50 mM Tris, pH 7.6, 5 mM MgCl2, 100 mM NaCl, 1 mM DTT and 1 mM EGTA. The membrane suspension was homogenized with a Polytron for 2 times and centrifuged at 3000 rpm for 10 min. The supernatent was then centrifuged at 18,000 rpm for 20 min. The pellet was saved in a tube and 10 ml assay buffer was added into the tube. The pellet and buffer were mixed with a Polytron.
The pellet membranes (75 μg/ml) were preincubated with SPA (10 mg/ml) at 25° C. for 45 min in the assay buffer. […] GTPγS in the same Tris buffer containing 100 μM GDP in total volume of 200 μl. Increasing concentrations of receptor agonists were used to stimulate [^35S] GTPγS binding. The basal binding was tested in the absent agonists and no specific binding was tested in the present 10 μM unlabeled GTPγS. The data were analyzed on a Top counter.
% of Basal=(stimulate−non specific)*100/(basal−non specific). EC50 values are calculated using a Prism program.

[3] = target: T4, human delta opioid receptor (Homo sapiens, UniProt P41143); assay: [35S]GTPγS binding assay in CHO-hδ cell membranes; format: biochemical
T4 construct: purchased Receptor Biology, Inc. (Baltimore, Md.); host or cells: CHO cells expressing the human delta receptor (membranes)
Method: CHO-hδ cell membranes are purchased from Receptor Biology, Inc. (Baltimore, Md.). 10 mg/ml of membrane protein is suspended in 10 mM TRIS-HC pH 7.2, 2 mM EDTA, 10% sucrose.
(§1) Membranes are maintained at 4-8° C. 1 ml of membranes is added into 15 ml cold binding assay buffer. The assay buffer contained 50 mM HEPES, pH 7.6, 5 mM MgCl2, 100 mM NaCl, 1 mM DTT and 1 mM EDTA. The membrane suspension is homogenized with a Polytron 2 times and centrifuged at 3000 rpm for 10 min. The supernatant is then centrifuged at 18,000 rpm for 20 min. The pellet is saved in a tube and 10 ml assay buffer is added into the tube. The pellet and buffer are mixed with a Polytron.
(§2) The pellet membranes (20 μg/ml) are preincubated with SPA (10 mg/ml) at 25° C. for 45 min in the assay buffer. The SPA (5 mg/ml) coupled with membranes (10 μg/ml) is then incubated with 0.5 nM [^35S]GTPgS in the same HEPES buffer containing 50 μM GDP in total volume of 200 μl. Increasing concentrations of receptor agonists are used to stimulate [^35S]GTPgS binding. The basal binding is tested in the absence of agonists and non-specific binding is tested in the presence of 10 μM unlabeled GTP S. The data are analyzed on a Top counter.

human mu opioid receptor = target: T5, human mu opioid receptor (Homo sapiens, UniProt P35372); assay: [35S]GTPγS binding assay in CHO-hμ cell membranes; format: biochemical; details: inhibition relative to 1 uM DAMGO, read-out: hMOR GTPγS % I @10 μM
T5 construct: purchased Receptor Biology, Inc. (Baltimore, Md.); host or cells: CHO cells expressing the human mu receptor (membranes)
Method: CHO-hμ cell membranes are purchased from Receptor Biology, Inc. (Baltimore, Md.). About 10 mg/ml of membrane protein is suspended in 10 mM TRIS-HC pH 7.2, 2 mM EDTA, 10% sucrose.
as §1, with “assay buffer contains 50 mM” for “assay buffer contained 50 mM”, “is added to the tube.” for “is added into the tube.”
as §2, with “25 C′” for “25° C.”, “present” for “presence of”, “GTPγS.” for “GTP S.”
% of Basal=(stimulate−non-specific)*100/(basal−non specific). % inhibition value values are calculated using a formula, % Inhibition=(% Basal of 1 uM DAMGO−% Basal of compound)*100/(% Basal of 1 uM DAMGO−100)

[4] = DOR GTPγS EC50, delta opioid receptor GTPγS functional assay
[5] = hDOR GTPγS EC50, human delta opioid receptor GTPγS functional assay

T3 sequence (P32300 whole entry): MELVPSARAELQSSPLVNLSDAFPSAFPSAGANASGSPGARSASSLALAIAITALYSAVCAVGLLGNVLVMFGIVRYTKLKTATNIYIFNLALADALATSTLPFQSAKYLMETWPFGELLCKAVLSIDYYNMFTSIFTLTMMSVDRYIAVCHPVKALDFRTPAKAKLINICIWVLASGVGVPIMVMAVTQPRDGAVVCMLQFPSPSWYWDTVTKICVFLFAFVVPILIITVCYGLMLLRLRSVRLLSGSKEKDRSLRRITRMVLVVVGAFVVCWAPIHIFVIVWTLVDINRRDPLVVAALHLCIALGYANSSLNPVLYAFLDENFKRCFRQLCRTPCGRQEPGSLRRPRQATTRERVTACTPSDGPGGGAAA
T4 sequence (P41143 whole entry): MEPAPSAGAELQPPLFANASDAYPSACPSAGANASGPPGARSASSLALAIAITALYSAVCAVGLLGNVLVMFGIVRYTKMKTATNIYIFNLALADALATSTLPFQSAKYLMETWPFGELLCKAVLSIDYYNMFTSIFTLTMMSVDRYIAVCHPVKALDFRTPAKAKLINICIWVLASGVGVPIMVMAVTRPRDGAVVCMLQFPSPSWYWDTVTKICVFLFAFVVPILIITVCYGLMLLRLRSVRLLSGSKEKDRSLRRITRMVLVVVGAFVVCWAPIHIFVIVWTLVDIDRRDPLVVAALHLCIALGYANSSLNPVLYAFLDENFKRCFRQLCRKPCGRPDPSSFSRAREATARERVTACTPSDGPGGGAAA
T1 sequence (P33533 whole entry): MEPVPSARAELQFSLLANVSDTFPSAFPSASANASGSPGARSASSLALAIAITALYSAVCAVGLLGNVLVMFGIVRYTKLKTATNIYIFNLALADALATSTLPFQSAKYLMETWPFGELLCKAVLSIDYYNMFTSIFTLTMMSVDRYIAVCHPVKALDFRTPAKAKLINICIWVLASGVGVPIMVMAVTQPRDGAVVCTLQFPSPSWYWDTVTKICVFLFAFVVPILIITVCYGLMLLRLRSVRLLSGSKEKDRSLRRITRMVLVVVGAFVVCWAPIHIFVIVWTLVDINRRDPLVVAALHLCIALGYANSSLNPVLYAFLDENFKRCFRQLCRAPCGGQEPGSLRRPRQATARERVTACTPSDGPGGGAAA
T2 sequence (P33535 whole entry): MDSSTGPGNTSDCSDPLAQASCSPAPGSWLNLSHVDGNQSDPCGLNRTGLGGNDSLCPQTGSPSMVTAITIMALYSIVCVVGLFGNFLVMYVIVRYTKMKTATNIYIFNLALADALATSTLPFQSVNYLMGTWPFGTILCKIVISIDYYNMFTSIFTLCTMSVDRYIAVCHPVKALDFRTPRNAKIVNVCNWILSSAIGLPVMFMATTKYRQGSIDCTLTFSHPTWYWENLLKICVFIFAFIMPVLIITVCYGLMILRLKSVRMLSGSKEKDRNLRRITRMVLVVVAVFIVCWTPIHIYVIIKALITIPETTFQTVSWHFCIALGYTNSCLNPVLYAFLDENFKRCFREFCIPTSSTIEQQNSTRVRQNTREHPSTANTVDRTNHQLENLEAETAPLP
T5 sequence (P35372 whole entry): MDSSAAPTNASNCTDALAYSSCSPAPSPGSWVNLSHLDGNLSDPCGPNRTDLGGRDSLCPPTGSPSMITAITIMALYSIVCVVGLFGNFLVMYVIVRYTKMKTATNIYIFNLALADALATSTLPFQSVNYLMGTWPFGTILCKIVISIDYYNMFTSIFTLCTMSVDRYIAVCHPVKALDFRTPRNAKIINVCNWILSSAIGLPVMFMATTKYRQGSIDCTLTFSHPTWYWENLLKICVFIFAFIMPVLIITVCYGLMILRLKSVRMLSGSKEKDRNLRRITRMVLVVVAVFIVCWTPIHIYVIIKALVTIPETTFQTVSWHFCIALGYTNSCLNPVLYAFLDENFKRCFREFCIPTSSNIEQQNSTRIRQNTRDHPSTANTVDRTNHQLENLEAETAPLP

Row | Compound | Ki [1] [nM] | Ki ([2]; read-out: rMOR Ki) [nM] | EC50 (delta opioid receptor; delta opioid receptor GTPγS functional assay, read-out: DOR GTPγS EC50) [nM] | Ki ([2]; rMOR Ki) [nM] | EC50 (delta opioid receptor; [4]) [nM] | EC50 [3, 5] [nM] | EC50 ([3]; human delta opioid receptor GTPγS functional assay, read-out: hDOR GTPγS EC50) [nM] | inhibition at 10 µM (human mu opioid receptor) [%]
1 | CCNC(=O)c1ccc2c(c1)Oc1ccccc1C2=C1CC2CCC(C1)N2 (single isomer, unassigned) [Compound 55] | 66.5 | 1860 | > 1000 | – | – | – | – | –
2 | CCN(CC)C(=O)c1ccc2c(c1)Sc1ccccc1C2=C1CC2CCC(C1)N2 (single isomer, unassigned) [Compound 62, 9-(8-Aza-bicyclo[3.2.1]oct-3-ylidene)-9H-thioxanthene-3-carboxylic acid diethylamide] | 2.96 | – | – | 739 | 8.35 | – | – | –
3 | CCN(CC)C(=O)c1ccc2c(c1)Oc1c(cccc1-c1cccnc1)C2=C1CC2CCC(C1)N2 [Compound 101, 9-(8-Aza-bicyclo[3.2.1]oct-3-ylidene)-5-pyridin-3-yl-9H-xanthene-3-carboxylic acid diethylamide] | 9.14 | – | – | 532 | 19.3 | – | – | –
4 | CCN(CC)C(=O)c1ccc2c(c1)Oc1ccccc1C2=C1CC2CCC(C1)N2 (single isomer, unassigned) [Compound 53, 9-(8-Aza-bicyclo[3.2.1]oct-3-ylidene)-9H-xanthene-3-carboxylic acid diethylamide] | 50.1 | > 100 | – | – | 2060 | 257 | – | –
5 | CCN(CC)C(=O)c1ccc2c(c1)Oc1c(OC)cccc1C2=C1CC2CCC(C1)N2 [Compound 68, 9-(8-Aza-bicyclo[3.2.1]oct-3-ylidene)-5-methoxy-9H-xanthene-3-carboxylic acid diethylamide] | 0.74 | – | – | 1290 | 22 | – | – | –
6 | CCN(CC)C(=O)c1ccc2c(c1)Oc1c(cccc1-c1ccoc1)C2=C1CC2CCC(C1)N2 [Compound 97, 9-(8-Aza-bicyclo[3.2.1]oct-3-ylidene)-5-furan-3-yl-9H-xanthene-3-carboxylic acid diethylamide] | 1.78 | – | – | 1810 | 13.3 | – | – | –
7 | CCN(CC)C(=O)c1ccc2c(c1)Oc1ccccc1C2=C1CC2CCC(C1)N2 (single isomer, unassigned) [Compound 52, 9-(8-Aza-bicyclo[3.2.1]oct-3-ylidene)-9H-xanthene-3-carboxylic acid diethylamide] | 0.61 | – | – | > 100 | 66 | 4.44 | – | –
8 | CCN(CC)C(=O)c1ccc2c(c1)Oc1c(cccc1-c1ccncc1)C2=C1CC2CCC(C1)N2 [Compound 96, 9-(8-Aza-bicyclo[3.2.1]oct-3-ylidene)-5-pyridin-4-yl-9H-xanthene-3-carboxylic acid diethylamide] | 1.69 | – | – | 4220 | 35.3 | – | – | –
9 | CCN(CC)C(=O)c1ccc2c(c1)Oc1c(cccc1-c1ccsc1)C2=C1CC2CCC(C1)N2 [Compound 99, 9-(8-Aza-bicyclo[3.2.1]oct-3-ylidene)-5-thiophen-3-yl-9H-xanthene-3-carboxylic acid diethylamide] | 19.3 | – | – | 3490 | 12.5 | – | – | –
10 | CCN(CC)C(=O)c1ccc2c(c1)Oc1cc(O)ccc1C2=C1CC2CCC(C1)N2 [Compound 76, 9-(8-Aza-bicyclo[3.2.1]oct-3-ylidene)-6-hydroxy-9H-xanthene-3-carboxylic acid diethylamide] | 1.7 | – | – | 285 | 5.91 | – | – | –
11 | CCN(CC)C(=O)c1ccc2c(c1)Oc1c(Br)cccc1C2=C1CC2CCC(C1)N2 [Compound 94, 9-(8-Aza-bicyclo[3.2.1]oct-3-ylidene)-5-bromo-9H-xanthene-3-carboxylic acid diethylamide] | 2.28 | – | – | 674 | 14.1 | – | – | –
12 | CC(C)N(C)C(=O)c1ccc2c(c1)Oc1ccccc1C2=C1CC2CCC(C1)N2 [Compound 92, 9-(8-Aza-bicyclo[3.2.1]oct-3-ylidene)-9H-xanthene-3-carboxylic acid isopropyl-methyl-amide] | 2.09 | – | – | 2.09 | 55.3 | – | – | –
13 | CCN(CC)C(=O)c1ccc2c(c1)Sc1ccccc1C2=C1CC2CCC(C1)N2 (single isomer, unassigned) [Compound 61, 9-(8-Aza-bicyclo[3.2.1]oct-3-ylidene)-9H-thioxanthene-3-carboxylic acid diethylamide] | 133 | – | – | 7180 | 188 | – | – | –
14 | CCN(CC)C(=O)c1ccc2c(c1)OCc1ccccc1C2=C1CCN(Cc2ccc3c(c2)OCO3)CC1 [Compound 4, 11-(1-Benzo[1,3]dioxol-5-ylmethyl-piperidin-4-ylidene)-6,11-dihydro-dibenzo[b,e]oxepine-3-carboxylic acid diethylamide] | 0.39 | 301 | – | – | – | – | 552 | 9
15 | CCN(CC)C(=O)c1ccc2c(c1)Oc1ccc(F)cc1C2=C1CC2CCC(C1)N2 [Compound 69] | 4.99 | – | – | 5830 | 126 | – | – | –
16 | CCN(CC)C(=O)c1ccc2c(c1)Oc1c(O)cccc1C2=C1CC2CCC(C1)N2 [Compound 100, 9-(8-Aza-bicyclo[3.2.1]oct-3-ylidene)-5-hydroxy-9H-xanthene-3-carboxylic acid diethylamide] | 0.274 | – | – | 5.85 | 0.452 | – | – | –
